Measured values from article PMC10058761, “Heart-Type Fatty Acid Binding Protein Binds Long-Chain Acylcarnitines and Protects against Lipotoxicity” (International Journal of Molecular Sciences, 2023).
Values joined by “and” are separate entries in the source; they are usually repeats but may differ in a detail not shown here. Equal values may be shown once.

Tests used:
human FABP3 [1] = biological target: T1, human FABP3 (Homo sapiens, UniProt P05413); assay: Ligand binding by NMR (2D 1H-15N HSQC chemical shift perturbations); conditions: KPi buffer pH 7.6
T1 construct: His-tag (N); TEV cleavage site (N); made in house; host or cells: E. coli BL21(DE3)
Procedure: NMR spectra were acquired on the 600 MHz Bruker Avance Neo spectrometer (Bruker Biospin GmbH, Rheinstetten, Germany) equipped with a 5-mm quadruple-resonance CryoProbe (QCI) with z-gradients. […] All experiments were performed in KPi buffer without or with TX and with the addition of 7% (v/v) D2O, 0.03% (v/v) NaN3, and 0.01% (v/v) SigmaFAST EDTA-free protease inhibitor cocktail to prevent protein degradation. The amount of organic solvent (ethanol or DMSO-d6) was below 2% (v/v) in each experiment.
3D HNCA, 3D HNCO, 3D HN(CA)CO, and 3D CBCA(CO)NH spectra were acquired for the backbone assignment. 3D [^1H,^1H]-nuclear Overhauser spectroscopy (NOESY)-^15N-heteronuclear single-quantum correlation (HSQC) spectrum was acquired using a mixing time of 100 ms and also used in the backbone assignment. 2D ^1H-^15N HSQC spectra were acquired for evaluation of the CSPs caused by the lipid binding. Chemical shifts were referenced internally to the residual water signal at 4.70 ppm relative to the 4,4-dimethyl-4-silapentane-1-sulfonic acid (DSS). […] Other complexes were analyzed by analogy and with the help of 3D [^1H-^1H]-NOESY-^15N-HSQC. All spectra were processed in TopSpin v. 4.1.1. (Bruker, Billerica, MA, USA) and analyzed in CARA 1.9.1. software. Residue-specific protein backbone amide assignment was performed based on the published chemical shifts. CSPs, Δδ, were calculated using Equation (1) with the scaling factor, α, which was set to 0.1 [67, 68]. (1) Δδ=1/2[δH2+α·δN^2],

human FABP3 [2] = biological target: T1, human FABP3; assay: ITC determination of heat capacity change at 16, 25 and 37 °C; type: binding; conditions: KPi without TX; ΔH at 16, 25, 37 °C, linear regression
Excerpt: Heat capacity changes, ΔCp, are important indicators of the structural changes during ligand-to-protein binding in various environmental conditions and may reflect changes in the static and dynamic properties of the protein [33, 34]. Moreover, it may represent interactions with extra supplements, such as salts and detergents, and larger processes, such as changes in protein folding, solvent-accessible surface area (SASA), or protonation states within the active site. […] Thermodynamic parameters for the remaining LCFAs were determined in the KPi + TX buffer, while LCACs were tested in the KPi buffer without any additive. Figure 7 represents an example of the overlays of the ITC experiments for C18:1(n-9)c and the corresponding LCAC performed at the following temperatures: 16, 25, and 37 °C.
(§1) ITC experiments were carried out on the MicroCal™ iTC200 instrument (Malvern Instruments Ltd., Malvern, UK). Experiments were performed in KPi buffer without and with 0.1% (v/v) TX supplement. All titrations except for the determination of the heat capacity, ΔCp, were performed at 25 °C using 20–120 μM protein. Experiments for the determination of the ΔCp were performed at three different temperatures: 16, 25, and 37 °C. 280 μL of the protein solution in the sample cell were titrated with the ligand solution diluted to 200–1200 μM depending on the enzyme concentration (to achieve a 1:10 or 1:5 ratio). Every titration started with a small 0.3 μL injection introduced to compensate for the diffusion effects. One of the following injection profiles was chosen based on the activity of the ligand and binding heat released: 1.2 μL × 32 or 1.5 μL × 26—all with 120 s time spacing between every injection and 600 rpm. Each ligand was titrated at least two times. The reference baseline consisting of small peaks of identical size (titration of the corresponding ligand into the buffer) was subtracted from the data before fitting to correct for the heat of the ligand dilution. The first injection was excluded from each dataset. The final data were fitted to a theoretical titration curve (one set of sites fitting model) using MicroCal Origin 7 SR4 software (OriginLab, Northampton, MA, USA).

human FABP3 [3] = biological target: T1, human FABP3; assay: ITC assay of ligand binding to apo-FABP3; conditions: KPi pH 7.6, 25 °C, without TX; for N (stoichiometry): protein assumed 100% active and delipidated
Procedure: as §1, with “All titrations except for the determination of the heat capacity, ΔCp, were performed at 25 °C using 20–120 μM protein.” left out, “280 μL of the protein solution in the sample cell were titrated with the ligand solution diluted to 200–1200 μM depending on the enzyme concentration (to achieve a 1:10 or 1:5 ratio).” left out

[4] = LCAC cytotoxicity assay (MTT) in FABP3-overexpressing PANC-1 cells; type: cell-based; conditions: human, 40 μM C16:0-carnitine, cells transfected with the FABP3 plasmid, read-out: cell viability
Excerpt: Cells were left to attach to the plate overnight.
Briefly, the cell media were removed from the wells.
Next, we tested whether overexpression of FABP3 could result in protective effects regarding the cell viability of the PANC-1 cells. The commercially available FuGENE® HD transfection reagent (Promega Corporation, Madison, WI, USA) was mixed with the FABP3 (NM_010174) mouse tagged ORF clone plasmid (OriGene Technologies, Inc., Rockville, MD, USA) in a 4:1 ratio for transfection according to the manufacturer’s protocol. Transfection was performed for 24 h in 6-well plates. To ensure transfection efficiency, quantitative PCR (qPCR) and Western blot analysis were performed (see Figures S52 and S53). Transfected PANC-1 cells were transferred to 96-well plates and further examined for C16:0-carnitine toxicity at various concentrations as previously described. The obtained results were compared to the effects in native cells.

in vitro = conditions: human
Procedure: PANC-1 (ATCC® CRL-1469™) pancreatic epithelial carcinoma cells were obtained from ATCC® (Manassas, VA, USA). PANC-1 cells were chosen as they are suitable for transfection and are characterized by low endogenous expression levels of FABP3. The cells were grown in Dulbecco’s Modified Eagle’s Medium (DMEM) supplemented with 10% (v/v) fetal bovine serum (FBS) and 1% (v/v) penicillin/streptomycin (Pen/Strep) at 37 °C in a humidified incubator with 5% CO2. All reagents for cell maintenance were purchased from Thermo Fisher Scientific. For experiments, PANC-1 cells were seeded at density 1 × 10^5 cells∙mL^−1 (100 μL per well) in the 96-well plate. Cells were left to attach to the plate overnight. Briefly, before the experiment, PANC-1 cells in 96-well plates were washed with Hanks’ Balanced Salt Solution (HBSS) several times. For all cell experiments, serum-free DMEM media were used.
Briefly, the cell media were removed from the wells. A solution of MTT was added to each well at the concentration of 1 mg∙mL^−1. The plate was incubated for 2 h at 37 °C. Then the MTT solution was removed and 100 μL of isopropyl alcohol was added to each well to dissolve the formazan crystals produced by living cells. The plate was then measured by the Hidex plate reader (Hidex Oy, Turku, Finland).

human FABP3 [5] = biological target: T1, human FABP3; assay: ITC competitive binding experiments (FABP3 pre-saturated with a competing ligand); conditions: KPi, 25 °C
Procedure: as §1, with “The final data were fitted to a theoretical titration curve (one set of sites fitting model) using MicroCal Origin 7 SR4 software (OriginLab, Northampton, MA, USA).” left out

[6] = FABP3 saturated with C8:0, titrated with C18:1(n-9)t-carnitine, Competitive Binding model
[7] = FABP3 saturated with C8:0, titrated with C18:1(n-9)t-carnitine, One Set of Sites model

T1 sequence (P05413 whole entry): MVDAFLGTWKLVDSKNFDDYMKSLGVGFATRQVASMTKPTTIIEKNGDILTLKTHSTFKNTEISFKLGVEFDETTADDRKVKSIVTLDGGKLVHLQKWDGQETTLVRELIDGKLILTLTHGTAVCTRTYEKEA

| binding to FABP3 by NMR (CSPs in 2D 1H-15N HSQC) (human FABP3 [1]) | ΔCp (human FABP3 [2]) | Kd (human FABP3 [3]) | ΔG (human FABP3 [3]) | ΔH (human FABP3 [3]) | −TΔS (human FABP3 [3]) | N (stoichiometry) (human FABP3 [3]) | -TΔS (human FABP3 [5]; [6]) | ΔG (human FABP3 [5]; [6]) | ΔH (human FABP3 [5]; [6]) | -TΔS (human FABP3 [5]; [7]) | Kd (human FABP3 [5]; [7]) | ΔG (human FABP3 [5]; [7]) | ΔH (human FABP3 [5]; [7]) | binding heat effects in competition titration (human FABP3 [5]; FABP3 saturated with C10:0, titrated with C18:1(n-9)t-carnitine) | SMILES | viability at 4 h, 40 μM [4] | CC50 at 4 h (in vitro) | viability at 4 h, 40 μM (in vitro) |
| --- | --- | --- | --- | --- | --- | --- | --- | --- | --- | --- | --- | --- | --- | --- | --- | --- | --- | --- |
| strong CSPs indicative of binding | −0.09 ± 0.01 kcal∙mol^−1∙K^−1 | 2.21 ± 0.07 µM | -7.72 ± 0.01 kcal/mol | -4.6 ± 0.2 kcal/mol | -3.1 ± 0.2 kcal/mol | 0.5 |  |  |  |  |  |  |  |  | CCCCCCCC/C=C\CCCCCCCC(=O)O[C@H](CC(=O)O)C[N+](C)(C)C.[Cl-] [C18:1(n-9)c-carnitine, oleoylcarnitine] |  |  |  |
| strong CSPs indicative of binding | −0.07 ± 0.01 kcal∙mol^−1∙K^−1 | 14.83 ± 0.08 µM | -6.61 ± 0.03 kcal/mol | -2.43 ± 0.09 kcal/mol | -4.19 ± 0.06 kcal/mol | 1.0 |  |  |  |  |  |  |  |  | CC/C=C\C/C=C\C/C=C\C/C=C\C/C=C\CCCC(=O)O[C@H](CC(=O)O)C[N+](C)(C)C [C20:5(n-3)c-carnitine, EPA-carnitine] |  |  |  |
| strong CSPs indicative of binding | −0.14 ± 0.01 kcal∙mol^−1∙K^−1 | 2.2 µM and 2.19 µM | -7.72 ± 0.02 kcal/mol |  |  | 0.5 | 0.32 ± 0.09 kcal/mol | -11.7 ± 0.1 kcal/mol | -12.0 ± 0.3 kcal/mol | -5.8 ± 0.3 kcal/mol | 1.8 ± 0.2 µM | -7.85 ± 0.08 kcal/mol | -2.0 ± 0.2 kcal/mol | no binding heat effects were detected | CCCCCCCC/C=C/CCCCCCCC(=O)O[C@H](CC(=O)O)C[N+](C)(C)C [C18:1(n-9)t-carnitine, elaidoylcarnitine] |  |  |  |

| SMILES | binding to FABP3 by NMR (CSPs in 2D 1H-15N HSQC) (human FABP3 [1]) | ΔCp (human FABP3 [2]) | Kd (human FABP3 [3]) | ΔG (human FABP3 [3]) | ΔH (human FABP3 [3]) | −TΔS (human FABP3 [3]) | N (stoichiometry) (human FABP3 [3]) | -TΔS (human FABP3 [5]; [6]) | ΔG (human FABP3 [5]; [6]) | ΔH (human FABP3 [5]; [6]) | -TΔS (human FABP3 [5]; [7]) | Kd (human FABP3 [5]; [7]) | ΔG (human FABP3 [5]; [7]) | ΔH (human FABP3 [5]; [7]) | binding heat effects in competition titration (human FABP3 [5]; FABP3 saturated with C10:0, titrated with C18:1(n-9)t-carnitine) | viability at 4 h, 40 μM [4] | CC50 at 4 h (in vitro) | viability at 4 h, 40 μM (in vitro) |
| --- | --- | --- | --- | --- | --- | --- | --- | --- | --- | --- | --- | --- | --- | --- | --- | --- | --- | --- |
| CCCCCCCCCCCCCCCC(=O)O[C@H](CC(=O)[O-])C[N+](C)(C)C [C16:0-carnitine] | did not show any significant CSPs |  |  |  |  |  |  |  |  |  |  |  |  |  |  | ~70% | ~25 µM | < 20% |
